This is an account of results in patent publication US6241965A, “Somatostatin derivatives and their radiolabelled products” (Diatide, Inc., priority 1996, dated 2001).

Starred links: 1 amine or outer side, 2 acyl side, 3 side chain; linkers in the order of their positions; H or OH if unused. Positions of bridges follow the written chain, without caps; N, C: chain ends. Non-standard residues stand in square brackets, D forms with d. Residues, ends and D or L forms follow the SMILES beside them. Chains are numbered I, II in the order given. *: point of attachment. DTPA = O=C(O)CN(CCN(CC(=O)O)CC(=O)O)CCN(CC(=O)O)CC(=O)*; X1 = O=C(C(=O)*)[C@@H](O)[C@H](O)[C@@H](O)CO; Phe(4-Cl) = N[C@@H](Cc1ccc(Cl)cc1)C(=O)O; 2Nal = N[C@@H](Cc1ccc2ccccc2c1)C(=O)O; d2Nal = N[C@H](Cc1ccc2ccccc2c1)C(=O)O; εLys = N[C@@H](CCCCN[*:1])C(=O)[*:2]; NMeF = CN[C@@H](Cc1ccccc1)C(=O)O; hCys = N[C@@H](CCS)C(=O)O; X2 = O=C(C[*:1])[*:2]; Acm = CC(=O)NC*

The assay concerns the target T1, somatostatin receptors (Rattus norvegicus, UniProt P30680).
T1 construct: endogenous in cells; host or cells: AR42J rat pancreatic tumor cell membranes
In words: Inhibition of binding of (125I-Tyr11)somatostatin-14 to AR42J rat pancreatic tumor cell membranes. As to conditions: displacement of (125I-Tyr11)somatostatin-14, AR42J cell membranes. The procedure:
Inhibition of Binding of (^125 I-Tyr^11)somatostatin-14 to AR42J Rat Pancreatic Tumor Cell Membranes
The rat pancreatic tumor cell line AR42J which expresses the somatostatin receptor was cultured in Dulbecco's minimal essential media (DMEM) supplemented with 10% fetal bovine serum (FBS) and 8 mM glutamine in a humdified 5% CO2 atmosphere at 37° C. in T-flasks. Harvested cells were homogenized in cold 50 mM Tris-HCl buffer (pH 7.4) and the homogenate then centrifuged at 39,000g for 10 min at 4° C. Pellets were washed once with buffer and then resuspended in an ice-cold solution of 10mM Tris-HCl (pH 7.4). Equal aliquots of this cell membrane preparation were incubated with (^125 I-Tyr^11)somatostatin-14 (at a final concentration of 0.5nM and 750,000cpm/mL, at a specific activity of 2000Ci/mmol, Amersham, Arlington Heights, Ill.) and peptide at a final concentration of from 10^-11 M to 10^-6 M in a solution of 50 mM HEPES (pH 7.4) containing 1% bovine serum albumin (BSA), 5 mM MgCl2, Trasylol (200,000 International Units), bacitracin (0.02 mg/mL) and phenylmethylsulfonylfluoride (0.02 mg/mL) for 25 min at 30° C. Using a filtration manifold, this mixture was filtered through a polyethyleneimine-washed GC/F filter (Whatman, Maidstone, England), and the residue remaining on the filter washed thrice with 5 mL cold HEPES buffer. The filter and a sample of the filter washings were then counted in a gamma counter. To assess non-specific binding, the assay was performed in the presence of unlabeled somatostatin-14 at 200 nM. Data analysis including Hill plots of the data provided inhibition constants (see Bylund & Yamamura, "Methods of receptor binding", in Methods in Neurotransmitter Receptor Analysis, Yamamura et al., eds., Raven Press: New York, 1990).

T1 sequence (P30680 whole entry): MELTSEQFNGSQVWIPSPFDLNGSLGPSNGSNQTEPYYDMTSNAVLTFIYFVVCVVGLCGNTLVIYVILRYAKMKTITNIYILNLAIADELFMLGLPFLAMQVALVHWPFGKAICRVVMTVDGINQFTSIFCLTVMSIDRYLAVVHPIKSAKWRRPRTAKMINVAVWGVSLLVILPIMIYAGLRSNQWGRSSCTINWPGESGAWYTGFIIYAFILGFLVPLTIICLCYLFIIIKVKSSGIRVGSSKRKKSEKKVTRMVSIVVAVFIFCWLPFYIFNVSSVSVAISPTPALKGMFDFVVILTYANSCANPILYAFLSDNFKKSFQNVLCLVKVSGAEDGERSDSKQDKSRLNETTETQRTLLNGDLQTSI

One may read the Ki as the dissociation constant of the complex between target and ligand, obtained from inhibition or displacement. As to `C[C@@H](O)[C@H](NC(=O)[C@H](Cc1ccccc1)NC(=O)[C@@H](NC(=O)[C@H](CCCCN)NC(=O)[C@@H](Cc1c[nH]c2ccccc12)NC(=O)[C@H](Cc1ccc(O)cc1)NC(=O)[C@H](Cc1ccc(Cl)cc1)NC(=O)[C@@H](Cc1ccccc1)NC(=O)C(=O)[C@@H](O)[C@H](O)[C@@H](O)CO)[C@@H](C)O)C(=O)NCCCC[C@H](N)C(=O)NCC(=O)N[C@@H](CS)C(N)=O` [(2-ketogulonyl)FD.Cpa.YWD KTFT(ε-K)GC.amide] (X1-[dF][Phe(4-Cl)]Y[dW]KTFT[εLys]GC-NH2), the inhibition constant (Ki) was 3.7 nM ((Re=O)-complexed peptides) and 2.7 nM (peptides not metal-complexed).
As for `CC(C)[C@H](NC(=O)[C@H](CCCCN)NC(=O)[C@@H](Cc1c[nH]c2ccccc12)NC(=O)[C@H](Cc1ccc(O)cc1)NC(=O)[C@H](CS)NC(=O)[C@@H](Cc1ccc2ccccc2c1)NC(=O)CN(CCN(CCN(CC(=O)O)CC(=O)N[C@H](Cc1ccc2ccccc2c1)C(=O)N[C@@H](CS)C(=O)N[C@@H](Cc1ccc(O)cc1)C(=O)N[C@H](Cc1c[nH]c2ccccc12)C(=O)N[C@@H](CCCCN)C(=O)N[C@H](C(=O)N[C@@H](CS)C(=O)N[C@H](C(N)=O)[C@@H](C)O)C(C)C)CC(=O)O)CC(=O)O)C(=O)N[C@@H](CS)C(=O)N[C@H](C(N)=O)[C@@H](C)O` [(DTPA)(NalD.CYWD KVCT)2], the affinity (peptides not metal-complexed) corresponds to a Ki of 7.2 nM.
The same measure, in the same setting: the figure for `C[C@@H](O)[C@H](NC(=O)[C@H](Cc1ccc2ccccc2c1)NC(=O)[C@@H](NC(=O)[C@H](CCCCN)NC(=O)[C@@H](Cc1c[nH]c2ccccc12)NC(=O)[C@H](Cc1ccc(O)cc1)NC(=O)[C@H](Cc1ccc(Cl)cc1)NC(=O)[C@@H](Cc1ccc2ccccc2c1)NC(=O)CN(CCN(CCN(CC(=O)O)CC(=O)O)CC(=O)O)CC(=O)O)[C@@H](C)O)C(=O)NCCCC[C@H](N)C(=O)NCC(=O)N[C@@H](CS)C(=O)N[C@@H](CCCCN)C(=O)N[C@@H](CCCCN)C(N)=O` [(DTPA)NalD.Cpa.YWD KT.Nal.T(ε-K)GCKK.amide] ({DTPA}-[d2Nal][Phe(4-Cl)]Y[dW]KT[2Nal]T[εLys]GCKK-NH2) is 2 nM.
Take `CC(=O)NCSC[C@H](NC(=O)CNC(=O)[C@H](CSCNC(C)=O)NC(=O)[C@@H](NC(=O)[C@H](Cc1ccccc1)NC(=O)[C@@H](NC(=O)[C@H](CCCCN)NC(=O)[C@@H](Cc1c[nH]c2ccccc12)NC(=O)[C@H](Cc1ccc(O)cc1)NC(=O)[C@H](Cc1ccc(Cl)cc1)NC(=O)[C@@H](Cc1ccc2ccccc2c1)NC(=O)CN(CCN(CCN(CC(=O)O)CC(=O)O)CC(=O)O)CC(=O)O)[C@@H](C)O)[C@@H](C)O)C(N)=O` [(DTPA)NalD.Cpa.YWD KTFTCAcm GCAcm.amide] ({DTPA}-[d2Nal][Phe(4-Cl)]Y[dW]KTFTC(Acm)GC(Acm)-NH2): for the setting “(Re=O)-complexed peptides”, affinity was put at a Ki of 3.1 nM.
Under “peptides not metal-complexed”, `C[C@H](N)C(=O)N[C@@H](CCCCN)C(=O)N[C@@H](CS)C(=O)NCC(=O)NCC(=O)NCC(=O)N[C@H](Cc1ccccc1)C(=O)N[C@@H](Cc1ccc(Cl)cc1)C(=O)N[C@@H](Cc1ccc(O)cc1)C(=O)N[C@H](Cc1c[nH]c2ccccc12)C(=O)N[C@@H](CCCCN)C(=O)N[C@H](C(=O)N[C@@H](Cc1ccccc1)C(=O)N[C@H](C(N)=O)[C@@H](C)O)[C@@H](C)O` [AKCGGGFD.Cpa.YWD KTFT.amide] (H-AKCGGG[dF][Phe(4-Cl)]Y[dW]KTFT-NH2) returned a Ki of 1.4 nM.
The same measure, in the same setting: the figure for `C[C@@H](O)[C@H](NC(=O)[C@H](Cc1ccccc1)NC(=O)[C@@H](NC(=O)[C@H](CCCCN)NC(=O)[C@@H](Cc1c[nH]c2ccccc12)NC(=O)[C@H](Cc1ccc(O)cc1)NC(=O)[C@H](Cc1ccc(Cl)cc1)NC(=O)[C@H](N)Cc1ccccc1)[C@@H](C)O)C(=O)N[C@@H](CS)C(=O)NCC(=O)N[C@@H](CS)C(N)=O` [FD.Cpa.YWD KTFTCGC.amide] (H-[dF][Phe(4-Cl)]Y[dW]KTFTCGC-NH2) is 4.8 nM; for `CC(C)[C@@H]1NC(=O)[C@H](CCCCN)NC(=O)[C@@H](Cc2c[nH]c3ccccc23)NC(=O)[C@H](Cc2ccc(O)cc2)NC(=O)[C@H](Cc2ccccc2)N(C)C(=O)[C@H](CCSCC(=O)NCC(=O)NCC(=O)N[C@@H](CS)C(=O)N[C@@H](CCCCN)C(=O)N[C@@H](CCCCN)C(N)=O)NC1=O` [cyclo(N-Me)FYWD KV.Hcy(CH2 CO.GGCKK.amide)] (I: cyclo([NMeF]Y[dW]KV[hCys]) / II: GGCKK-NH2; linker I:6-II:N via X2) it is 0.26 nM.
Regarding (DTPA).Aca.FD.Cpa.YWD KTFT(ε-K)GC.amide, the Ki ((Re=O)-complexed peptides) was determined as 8.2 nM.
Under “(Re=O)-complexed peptides”, (DTPA).FD.Cpa.YWD KTFT(ε-K)GC.amide showed a Ki of 7.9 nM. The Ki values of the last two compounds are within 1.5-fold of each other.
Same read-out and setting: the figure for (DTPA).NalD.Cpa.YWD KTFT(ε-K)GC.amide is 11 nM; for Ac.DD DFD.Cpa.YWD KTFT(ε-K)GCKK.amide it is 1.4 nM.
Still for that read-out and setting: with Ac.FD FYWD KTFTGGG(ε-K)KC.amide the figure was 6.1 nM; with DD DFD.Cpa.YWD KTFT(ε-K)GCKK.amide, 0.5 nM.
On the same count and under the same terms, the figure for FD.Cpa.YWD KTC(ε-K)CGC.amide is 0.37 nM.
FD.Cpa.YWD KTC(ε-K)GC.amide: the inhibition constant (Ki) ((Re=O)-complexed peptides) worked out at 0.36 nM.
Still for that read-out and setting: with FD.Cpa.YWD KTC(ε-K)GCKK.amide the figure was 0.13 nM.
The same measure, in the same setting: the figure for Hca.NalD.Cpa.YWD KTFT(ε-K)GCKK, amide is 8 nM.
For the compound KD KK.NalD.Cpa.YWD KTFT(ε-K)GCDD.amide, affinity ((Re=O)-complexed peptides) was put at a Ki of 1.6 nM.
Same read-out and setting: the figure for KD KK.NalD.Cpa.YWD KTFT(ε-K)GCDDD.amide is 1.5 nM.
For “KD KKK.NalD.Cpa.YWD KTFT(ε-K)GCKDKD.amide”, for the setting “peptides not metal-complexed”, the inhibition constant (Ki) came to 4.9 nM.
The compound “KD KKKFD.Cpa.YWD KTF.Nal.(ε-K)GCDDDD.amide” displayed an inhibition constant Ki ((Re=O)-complexed peptides) of 8.1 nM.
The compound “KDKKK.NalD.Cpa.YWD KTFT(ε-K)GCKDKD.amide” registered a Ki ((Re=O)-complexed peptides) of 3.8 nM.
On the same count and under the same terms, with NalD.Cpa.YWD KTFT(ε-K)GCKK.amide the figure was 2.2 nM.
